# According to ChEMBL document CHEMBL1201862, “PubChem BioAssay data set” (2004):
#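 Following 48 hours of exposure in 96-well plates, responses at five concentrations were used to interpolate endpoints linearly. Abbreviation: GI50, concentration required for 50% inhibition of growth.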 Calls of active or inactive are those of the source. Rule as the data show it: active = GI50 up to about 1.1 µM and inactive = higher.
# Tests used:
# Assay in all cases: growth of human tumour cells (NCI), 48 h
# SF-539 = system: SF-539
# RXF 393 = system: RXF 393
# Malme-3M = system: Malme-3M
# SK-MEL-28 = system: SK-MEL-28
# SNB-75 = system: SNB-75
# SNB-78 = system: SNB-78
# RPMI-8226 = system: RPMI-8226
# UACC-62 = system: UACC-62
# 786-0 = system: 786-0
# HOP-62 = system: HOP-62
# M14 = system: M14
# NCI-H226 = system: NCI-H226
# HL-60 = system: HL-60
# HCT-15 = system: HCT-15
# EKVX = system: EKVX
# KM-20L2 = system: KM-20L2
# CCRF-CEM = system: CCRF-CEM
# MOLT-4 = system: MOLT-4
# K562 = system: K562
# UACC-257 = system: UACC-257
# SK-MEL-2 = system: SK-MEL-2
# M19-MEL = system: M19-MEL
# SF-295 = system: SF-295
# U-251 = system: U-251
# KM12 = system: KM12
# ACHN = system: ACHN
# OVCAR-4 = system: OVCAR-4
# SW-620 = system: SW-620
# SK-OV-3 = system: SK-OV-3
# HCT-116 = system: HCT-116
# DLD-1 = system: DLD-1
# SK-MEL-5 = system: SK-MEL-5
# IGROV-1 = system: IGROV-1
# HT-29 = system: HT-29
# OVCAR-3 = system: OVCAR-3
# LXFL 529 = system: LXFL 529
# TK-10 = system: TK-10
# DMS-273 = system: DMS-273
# DMS-114 = system: DMS-114
# XF498 = system: XF498
# OVCAR-5 = system: OVCAR-5
# A549 = system: A549
# NCI-H23 = system: NCI-H23
# A498 = system: A498
# NCI-H460 = system: NCI-H460
# UO-31 = system: UO-31
# OVCAR-8 = system: OVCAR-8
# HCC 2998 = system: HCC 2998
# CAKI-1 = system: CAKI-1
# SN12C = system: SN12C
# NCI-H522 = system: NCI-H522
# SF-268 = system: SF-268
# COLO 205 = system: COLO 205
# SNB-19 = system: SNB-19
# LOX IMVI = system: LOX IMVI
# HOP-92 = system: HOP-92
compound,measurement,setting,value
CCNC1C2(CCCCC2)NC(=O)C12CCCCC2 (stereo unspecified),GI50,SF-539,> 100 µM (inactive)
same,GI50,RXF 393,> 100 µM (inactive)
same,GI50,Malme-3M,> 100 µM (inactive)
same,GI50,SK-MEL-28,> 100 µM (inactive)
same,GI50,SNB-75,> 100 µM (inactive)
same,GI50,SNB-78,> 100 µM (inactive)
same,GI50,RPMI-8226,> 100 µM (inactive)
same,GI50,UACC-62,> 100 µM (inactive)
same,GI50,786-0,> 100 µM (inactive)
same,GI50,HOP-62,> 100 µM (inactive)
same,GI50,M14,> 100 µM (inactive)
same,GI50,NCI-H226,> 100 µM (inactive)
same,GI50,HL-60,> 100 µM (inactive)
same,GI50,HCT-15,> 100 µM
same,GI50,EKVX,> 100 µM (inactive)
same,GI50,KM-20L2,> 100 µM (inactive)
same,GI50,CCRF-CEM,> 100 µM (inactive)
same,GI50,MOLT-4,> 100 µM (inactive)
same,GI50,K562,> 100 µM (inactive)
same,GI50,UACC-257,> 100 µM (inactive)
same,GI50,SK-MEL-2,> 100 µM (inactive)
same,GI50,M19-MEL,> 100 µM (inactive)
same,GI50,SF-295,> 100 µM (inactive)
same,GI50,U-251,> 100 µM (inactive)
same,GI50,KM12,> 100 µM (inactive)
same,GI50,ACHN,> 100 µM (inactive)
same,GI50,OVCAR-4,> 100 µM (inactive)
same,GI50,SW-620,> 100 µM (inactive)
same,GI50,SK-OV-3,> 100 µM (inactive)
same,GI50,HCT-116,> 100 µM (inactive)
same,GI50,DLD-1,> 100 µM (inactive)
same,GI50,SK-MEL-5,> 100 µM (inactive)
same,GI50,IGROV-1,> 100 µM (inactive)
same,GI50,HT-29,> 100 µM (inactive)
same,GI50,OVCAR-3,> 100 µM (inactive)
same,GI50,LXFL 529,> 100 µM (inactive)
same,GI50,TK-10,> 100 µM (inactive)
same,GI50,DMS-273,> 100 µM (inactive)
same,GI50,DMS-114,> 100 µM (inactive)
same,GI50,XF498,> 100 µM (inactive)
same,GI50,OVCAR-5,> 100 µM (inactive)
same,GI50,A549,> 100 µM (inactive)
same,GI50,NCI-H23,> 100 µM (inactive)
same,GI50,A498,> 100 µM (inactive)
same,GI50,NCI-H460,> 100 µM (inactive)
same,GI50,UO-31,> 100 µM (inactive)
same,GI50,OVCAR-8,> 100 µM (inactive)
same,GI50,HCC 2998,> 100 µM (inactive)
same,GI50,CAKI-1,> 100 µM (inactive)
CCO/C=C1\N=C(c2ccccc2Br)OC1=O,GI50,SF-539,> 100 µM (inactive)
same,GI50,RXF 393,> 100 µM (inactive)
same,GI50,Malme-3M,> 100 µM (inactive)
same,GI50,SK-MEL-28,> 100 µM (inactive)
same,GI50,SN12C,> 100 µM (inactive)
same,GI50,SNB-75,> 100 µM (inactive)
same,GI50,SNB-78,> 100 µM (inactive)
same,GI50,RPMI-8226,> 100 µM (inactive)
same,GI50,UACC-62,> 100 µM (inactive)
same,GI50,786-0,> 100 µM (inactive)
same,GI50,HOP-62,> 100 µM (inactive)
same,GI50,M14,> 100 µM (inactive)
same,GI50,NCI-H522,> 100 µM (inactive)
same,GI50,NCI-H226,> 100 µM (inactive)
same,GI50,HL-60,> 100 µM (inactive)
same,GI50,HCT-15,> 100 µM
same,GI50,EKVX,> 100 µM (inactive)
same,GI50,KM-20L2,> 100 µM (inactive)
same,GI50,CCRF-CEM,> 100 µM (inactive)
same,GI50,MOLT-4,> 100 µM (inactive)
same,GI50,SF-268,> 100 µM (inactive)
same,GI50,K562,> 100 µM (inactive)
same,GI50,UACC-257,> 100 µM (inactive)
same,GI50,SK-MEL-2,> 100 µM (inactive)
same,GI50,M19-MEL,> 100 µM (inactive)
same,GI50,SF-295,> 100 µM (inactive)
same,GI50,KM12,> 10 µM (inactive)
same,GI50,ACHN,> 100 µM (inactive)
same,GI50,OVCAR-4,> 100 µM (inactive)
same,GI50,SW-620,> 100 µM (inactive)
same,GI50,SK-OV-3,> 100 µM (inactive)
same,GI50,DLD-1,> 100 µM (inactive)
same,GI50,HT-29,> 100 µM (inactive)
same,GI50,COLO 205,> 100 µM (inactive)
same,GI50,OVCAR-3,> 100 µM (inactive)
same,GI50,LXFL 529,> 100 µM (inactive)
same,GI50,TK-10,> 100 µM (inactive)
same,GI50,SNB-19,> 100 µM (inactive)
same,GI50,DMS-273,> 100 µM (inactive)
same,GI50,LOX IMVI,> 100 µM (inactive)
same,GI50,DMS-114,> 100 µM (inactive)
same,GI50,XF498,> 100 µM (inactive)
same,GI50,OVCAR-5,> 100 µM (inactive)
same,GI50,A549,> 100 µM (inactive)
same,GI50,NCI-H23,> 100 µM (inactive)
same,GI50,HOP-92,> 100 µM (inactive)
same,GI50,A498,> 100 µM (inactive)
same,GI50,NCI-H460,> 100 µM (inactive)
same,GI50,UO-31,> 100 µM (inactive)
same,GI50,OVCAR-8,> 100 µM (inactive)
same,GI50,HCC 2998,> 100 µM (inactive)
same,GI50,CAKI-1,> 100 µM (inactive)
